Laboratory results reported in article doi:10.1101/2025.04.23.650324v1 (biorxiv, 2025).
In brackets after ≈: the same amount, converted by molar mass.

Tests used:
Assay in all cases: microbe, parasite or virus in culture
[1] = tested on: Acinetobacter baumannii #10; details: 18 h, read-out: ENOblock MIC (mg/L)
[2] = tested on: Acinetobacter baumannii #11; details: 18 h, read-out: ENOblock MIC (mg/L)
[3] = tested on: Acinetobacter baumannii #14; details: 18 h, read-out: ENOblock MIC (mg/L)
[4] = tested on: Acinetobacter baumannii #16; details: 18 h, read-out: ENOblock MIC (mg/L)
[5] = tested on: Acinetobacter baumannii #17; details: 18 h, read-out: ENOblock MIC (mg/L)
[6] = tested on: Acinetobacter baumannii #19; details: 18 h, read-out: ENOblock MIC (mg/L)
[7] = tested on: Acinetobacter baumannii #1; details: 18 h, read-out: ENOblock MIC (mg/L)
[8] = tested on: Acinetobacter baumannii #20; details: 18 h, read-out: ENOblock MIC (mg/L)
[9] = tested on: Acinetobacter baumannii #21; details: 18 h, read-out: ENOblock MIC (mg/L)
[10] = tested on: Acinetobacter baumannii #22; details: 18 h, read-out: ENOblock MIC (mg/L)
Escherichia coli CRA17 = details: CRA17, 18 h, read-out: ENOblock MIC (mg/L)
Escherichia coli CRA20 = details: CRA20, 18 h, read-out: ENOblock MIC (mg/L)
Escherichia coli CRA32 = details: CRA32, 18 h, read-out: ENOblock MIC (mg/L)
Escherichia coli CRA57 = details: CRA57, 18 h, read-out: ENOblock MIC (mg/L)
Escherichia coli CRA5 = details: CRA5, 18 h, read-out: ENOblock MIC (mg/L)
Escherichia coli CRA7 = details: CRA7, 18 h, read-out: ENOblock MIC (mg/L)
Escherichia coli CRA8 = details: CRA8, 18 h, read-out: ENOblock MIC (mg/L)
Escherichia coli R2 = details: R2, 18 h, read-out: ENOblock MIC (mg/L)
Escherichia coli R5 = details: R5, 18 h, read-out: ENOblock MIC (mg/L)
Escherichia coli R6 = details: R6, 18 h, read-out: ENOblock MIC (mg/L)
[11] = tested on: Klebsiella pneumoniae Kp10; details: KP10, 18 h, read-out: ENOblock MIC (mg/L)
[12] = tested on: Klebsiella pneumoniae Kp11; details: KP11, 18 h, read-out: ENOblock MIC (mg/L)
[13] = tested on: Klebsiella pneumoniae Kp12; details: KP12, 18 h, read-out: ENOblock MIC (mg/L)
[14] = tested on: Klebsiella pneumoniae Kp13; details: KP13, 18 h, read-out: ENOblock MIC (mg/L)
[15] = tested on: Klebsiella pneumoniae Kp14; details: KP14, 18 h, read-out: ENOblock MIC (mg/L)
[16] = tested on: Klebsiella pneumoniae Kp15; details: KP15, 18 h, read-out: ENOblock MIC (mg/L)
[17] = tested on: Klebsiella pneumoniae Kp6; details: KP6, 18 h, read-out: ENOblock MIC (mg/L)
[18] = tested on: Klebsiella pneumoniae Kp7; details: KP7, 18 h, read-out: ENOblock MIC (mg/L)
[19] = tested on: Klebsiella pneumoniae Kp8; details: KP8, 18 h, read-out: ENOblock MIC (mg/L)
[20] = tested on: Klebsiella pneumoniae Kp9; details: KP9, 18 h, read-out: ENOblock MIC (mg/L)

Compound `NCCOCCOCCNC(=O)Cc1ccc(Nc2nc(NCc3ccc(F)cc3)nc(NCC3CCCCC3)n2)cc1` [ENOblock] has an MIC [1] of 16 mg/L (≈ 26.9 µM), an MIC [2] of 16 mg/L (≈ 26.9 µM) and an MIC [3] of 16 mg/L (≈ 26.9 µM). The MIC [4] was 16 mg/L (≈ 26.9 µM), the MIC [5] was 16 mg/L (≈ 26.9 µM) and the MIC [6] was 32 mg/L (≈ 53.8 µM). The MIC [7] was 16 mg/L (≈ 26.9 µM), the MIC [8] was 8 mg/L (≈ 13.5 µM) and the MIC [9] was 8 mg/L (≈ 13.5 µM). For the same compound, the MIC [10] was 16 mg/L (≈ 26.9 µM), the MIC (Escherichia coli CRA17) was 32 mg/L (≈ 53.8 µM) and the MIC (Escherichia coli CRA20) was 32 mg/L (≈ 53.8 µM). For the same compound, the MIC (Escherichia coli CRA32) was 8 mg/L (≈ 13.5 µM), the MIC (Escherichia coli CRA57) was 16 mg/L (≈ 26.9 µM) and the MIC (Escherichia coli CRA5) was 16 mg/L (≈ 26.9 µM). It also gave an MIC (Escherichia coli CRA7) of 16 mg/L (≈ 26.9 µM), an MIC (Escherichia coli CRA8) of 16 mg/L (≈ 26.9 µM) and an MIC (Escherichia coli R2) of 32 mg/L (≈ 53.8 µM). It also gave an MIC (Escherichia coli R5) of 32 mg/L (≈ 53.8 µM), an MIC (Escherichia coli R6) of 16 mg/L (≈ 26.9 µM) and an MIC [11] of 32 mg/L (≈ 53.8 µM). It also gave an MIC [12] of 16 mg/L (≈ 26.9 µM), an MIC [13] of 64 mg/L (≈ 108 µM) and an MIC [14] of 64 mg/L (≈ 108 µM). For the same compound, the MIC [15] was 64 mg/L (≈ 108 µM), the MIC [16] was 64 mg/L (≈ 108 µM) and the MIC [17] was 32 mg/L (≈ 53.8 µM). The MIC [18] was 16 mg/L (≈ 26.9 µM), the MIC [19] was 64 mg/L (≈ 108 µM) and the MIC [20] was 64 mg/L (≈ 108 µM).
